Columns and labels:
Assay in all cases: relative viability (nuclei count vs DMSO), 5 days (fraction); higher = more cells survive
Dactolisib + Olaparib = compound: Cn1c(=O)n(-c2ccc(C(C)(C)C#N)cc2)c2c3cc(-c4cnc5ccccc5c4)ccc3ncc21 [Dactolisib] + O=C(c1cc(Cc2n[nH]c(=O)c3ccccc23)ccc1F)N1CCN(C(=O)C2CC2)CC1 [Olaparib] (partner 8 µM)
How it was run: (§1)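 Five library-drug doses in √10 steps were combined with a fixed anchor-drug dose, or a single drug was given alone, by pin tool to lung cancer cell lines in 1536-well plates the day after seeding. Nuclei were stained and counted after 5 days. Relative viability is the nuclei count in treated wells over that in vehicle wells, taken as the median of duplicate plates.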

Dactolisib + Crizotinib = compound: Cn1c(=O)n(-c2ccc(C(C)(C)C#N)cc2)c2c3cc(-c4cnc5ccccc5c4)ccc3ncc21 [Dactolisib] + C[C@@H](Oc1cc(-c2cnn(C3CCNCC3)c2)cnc1N)c1c(Cl)ccc(F)c1Cl [Crizotinib] (partner 1 µM)
How it was run: as §1

AZ505 + Linsitinib = compound: C1CCC(CC1)N(CCNCCC2=C3C(=C(C=C2)O)NC(=O)CO3)C(=O)CCNCCC4=CC(=C(C=C4)Cl)Cl [AZ505] + C[C@]1(O)C[C@@H](c2nc(-c3ccc4ccc(-c5ccccc5)nc4c3)c3c(N)nccn32)C1 [Linsitinib] (partner 1 µM)
How it was run: as §1

Dactolisib + Pemetrexed = compound: Cn1c(=O)n(-c2ccc(C(C)(C)C#N)cc2)c2c3cc(-c4cnc5ccccc5c4)ccc3ncc21 [Dactolisib] + Nc1nc2[nH]cc(CCc3ccc(C(=O)N[C@@H](CCC(=O)O)C(=O)O)cc3)c2c(=O)[nH]1 [Pemetrexed] (partner 0.2 µM)
How it was run: as §1

Cell Line	relative viability (Dactolisib + Olaparib; first compound 0.002 µM)	relative viability (Dactolisib + Olaparib; first compound 0.006325 µM)	relative viability (Dactolisib + Olaparib; first compound 0.02 µM)	relative viability (Dactolisib + Olaparib; first compound 0.06325 µM)	relative viability (Dactolisib + Olaparib; first compound 0.2 µM)	relative viability (Dactolisib + Crizotinib; first compound 0.002 µM)	relative viability (Dactolisib + Crizotinib; first compound 0.006325 µM)	relative viability (Dactolisib + Crizotinib; first compound 0.02 µM)	relative viability (Dactolisib + Crizotinib; first compound 0.06325 µM)	relative viability (Dactolisib + Crizotinib; first compound 0.2 µM)	relative viability (AZ505 + Linsitinib; first compound 0.08 µM)	relative viability (AZ505 + Linsitinib; first compound 0.8 µM)	relative viability (AZ505 + Linsitinib; first compound 2.53 µM)	relative viability (AZ505 + Linsitinib; first compound 8 µM)	relative viability (Dactolisib + Pemetrexed; first compound 0.002 µM)	relative viability (Dactolisib + Pemetrexed; first compound 0.006325 µM)	relative viability (Dactolisib + Pemetrexed; first compound 0.02 µM)	relative viability (Dactolisib + Pemetrexed; first compound 0.06325 µM)	relative viability (Dactolisib + Pemetrexed; first compound 0.2 µM)	relative viability (AZ505 + Linsitinib; first compound 0.253 µM)
LXF-289	1.21	0.986	1	0.973	0.695	0.822	0.779	0.896	0.942	0.708	0.884	0.973	0.943	0.96	0.921	0.886	0.964	1.02	0.619	
PC-14	0.337	0.505	0.359	0.141	0.0895	0.918	0.932	0.953	0.603	0.391	0.88	0.922	0.881	0.951	0.0904	0.129	0.192	0.197	0.145	0.948
NCI-H650	0.552	0.378	0.437	0.312	0.195	0.627	0.747	0.752	0.519	0.393	0.847	0.897	1.15	0.921	1	0.815	0.897	0.723	0.47	0.739
NCI-H1666	0.955	0.683	0.874	0.713	0.747	1.22	0.884	0.876	0.637	0.436	0.835	0.849	0.726	0.941	0.849	0.892	0.858	0.736	0.802	0.718
